Assay results: ChEMBL document CHEMBL4251615, “Discovery of anilino-furo[2,3-d]pyrimidine derivatives as dual inhibitors of EGFR/HER2 tyrosine kinase and their anticancer activity” (Eur J Med Chem, 2018)

Key:
OVCAR-3 = assay: Growth inhibition of human OVCAR3 cells assessed as cell growth at 10 uM incubated for 48 hrs by sulforhodamine B assay relative to control; type: functional; settings: OVCAR-3, 48 h, read-out: Activity
MDA-MB-468 = assay: Growth inhibition of human MDA-MB-468 cells assessed as cell growth at 10 uM incubated for 48 hrs by sulforhodamine B assay relative to control; type: functional; settings: MDA-MB-468, 48 h, read-out: Activity
ACHN = assay: Growth inhibition of human ACHN cells assessed as cell growth at 10 uM incubated for 48 hrs by sulforhodamine B assay relative to control; type: functional; settings: read-out: Activity
LOX IMVI = assay: Growth inhibition of human LOXIMVI cells assessed as cell growth at 10 uM incubated for 48 hrs by sulforhodamine B assay relative to control; type: functional; settings: read-out: Activity
HOP-92 = assay: Growth inhibition of human HOP92 cells assessed as cell growth at 10 uM incubated for 48 hrs by sulforhodamine B assay relative to control; type: functional; settings: HOP-92, 48 h, read-out: Activity
NCI-H460 = assay: Growth inhibition of human NCI-H460 cells assessed as cell growth at 10 uM incubated for 48 hrs by sulforhodamine B assay relative to control; type: functional; settings: NCI-H460, 48 h, read-out: Activity
NCI/ADR-RES = assay: Growth inhibition of human NCI/ADR-RES cells assessed as cell growth at 10 uM incubated for 48 hrs by sulforhodamine B assay relative to control; type: functional; settings: read-out: Activity
SF-268 = assay: Growth inhibition of human SF268 cells assessed as cell growth at 10 uM incubated for 48 hrs by sulforhodamine B assay relative to control; type: functional; settings: SF-268, 48 h, read-out: Activity
MDA-MB-231 = assay: Growth inhibition of human MDA-MB-231 cells assessed as cell growth at 10 uM incubated for 48 hrs by sulforhodamine B assay relative to control; type: functional; settings: MDA-MB-231, 48 h, read-out: Activity
HCT-15 = assay: Growth inhibition of human HCT15 cells assessed as cell growth at 10 uM incubated for 48 hrs by sulforhodamine B assay relative to control; type: functional; settings: HCT-15, 48 h, read-out: Activity
[1] = target: Epidermal growth factor receptor (Homo sapiens, UniProt P00533); assay: Inhibition of recombinant human C-terminal His/N-terminal GST-tagged EGFR (668 to 1210 residues) expressed in baculovirus infected Sf9 cells at 10 uM using biotin-labeled poly[Glu:Tyr] (4:1) as substrate after 30 mins by Kinase-Glo plus luminescence assay relative to control
Epidermal growth factor receptor, sequence (P00533 whole entry, the tested form may be a part): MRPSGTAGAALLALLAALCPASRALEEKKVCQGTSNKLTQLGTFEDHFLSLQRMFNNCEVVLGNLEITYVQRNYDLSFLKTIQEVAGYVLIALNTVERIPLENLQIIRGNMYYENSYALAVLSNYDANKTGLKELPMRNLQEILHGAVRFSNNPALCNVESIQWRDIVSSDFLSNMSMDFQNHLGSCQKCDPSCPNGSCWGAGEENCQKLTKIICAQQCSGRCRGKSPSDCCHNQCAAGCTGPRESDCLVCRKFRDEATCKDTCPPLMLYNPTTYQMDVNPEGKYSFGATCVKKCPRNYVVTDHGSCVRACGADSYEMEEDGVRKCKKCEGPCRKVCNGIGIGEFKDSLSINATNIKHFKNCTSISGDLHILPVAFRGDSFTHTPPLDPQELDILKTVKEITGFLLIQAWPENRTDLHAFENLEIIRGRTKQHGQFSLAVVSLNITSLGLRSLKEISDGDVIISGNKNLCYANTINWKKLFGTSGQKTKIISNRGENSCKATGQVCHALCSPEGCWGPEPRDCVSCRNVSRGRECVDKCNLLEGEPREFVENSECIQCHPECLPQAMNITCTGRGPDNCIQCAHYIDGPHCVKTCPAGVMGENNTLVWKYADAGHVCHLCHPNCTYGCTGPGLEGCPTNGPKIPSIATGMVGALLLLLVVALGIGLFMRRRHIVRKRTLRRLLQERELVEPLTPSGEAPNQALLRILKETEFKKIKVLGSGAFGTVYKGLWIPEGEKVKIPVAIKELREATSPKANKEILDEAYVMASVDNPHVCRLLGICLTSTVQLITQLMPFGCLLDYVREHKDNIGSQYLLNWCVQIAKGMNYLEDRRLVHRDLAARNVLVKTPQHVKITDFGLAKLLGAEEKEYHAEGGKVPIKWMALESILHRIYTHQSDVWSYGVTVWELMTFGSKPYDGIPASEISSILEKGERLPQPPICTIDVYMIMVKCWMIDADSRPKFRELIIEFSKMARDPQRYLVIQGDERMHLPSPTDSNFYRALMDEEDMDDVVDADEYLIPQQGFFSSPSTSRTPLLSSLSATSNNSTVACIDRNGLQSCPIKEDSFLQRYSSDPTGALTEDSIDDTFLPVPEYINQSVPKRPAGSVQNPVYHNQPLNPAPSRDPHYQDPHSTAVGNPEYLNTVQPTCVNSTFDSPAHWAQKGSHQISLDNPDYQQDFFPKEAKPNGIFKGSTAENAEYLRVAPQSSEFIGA

MCF7 = assay: Growth inhibition of human MCF7 cells assessed as cell growth at 10 uM incubated for 48 hrs by sulforhodamine B assay relative to control; type: functional; settings: MCF7, 48 h, read-out: Activity
BT-549 = assay: Growth inhibition of human BT549 cells assessed as cell growth at 10 uM incubated for 48 hrs by sulforhodamine B assay relative to control; type: functional; settings: BT-549, 48 h, read-out: Activity
A498 = assay: Growth inhibition of human A498 cells assessed as cell growth at 10 uM incubated for 48 hrs by sulforhodamine B assay relative to control; type: functional; settings: A498, 48 h, read-out: Activity
NCI-H226 = assay: Growth inhibition of human NCI-H226 cells assessed as cell growth at 10 uM incubated for 48 hrs by sulforhodamine B assay relative to control; type: functional; settings: NCI-H226, 48 h, read-out: Activity
NCI-H322M = assay: Growth inhibition of human NCI-H322M cells assessed as cell growth at 10 uM incubated for 48 hrs by sulforhodamine B assay relative to control; type: functional; settings: read-out: Activity
K562 = assay: Growth inhibition of human K562 cells assessed as cell growth at 10 uM incubated for 48 hrs by sulforhodamine B assay relative to control; type: functional; settings: K562, 48 h, read-out: Activity
SF-295 = assay: Growth inhibition of human SF295 cells assessed as cell growth at 10 uM incubated for 48 hrs by sulforhodamine B assay relative to control; type: functional; settings: SF-295, 48 h, read-out: Activity
HOP-62 = assay: Growth inhibition of human HOP62 cells assessed as cell growth at 10 uM incubated for 48 hrs by sulforhodamine B assay relative to control; type: functional; settings: HOP-62, 48 h, read-out: Activity
[2] = target: Receptor tyrosine-protein kinase erbB-2 (Homo sapiens) (UniProt P04626); assay: Inhibition of recombinant human N-terminal GST-tagged HER2 (679 to 1255 residues) expressed in baculovirus infected Sf9 cells at 10 uM using poly[Glu:Tyr] (4:1) as substrate after 40 mins by Kinase-Glo plus luminescence assay relative to control
Receptor tyrosine-protein kinase erbB-2 (Homo sapiens), sequence (P04626 whole entry, the tested form may be a part): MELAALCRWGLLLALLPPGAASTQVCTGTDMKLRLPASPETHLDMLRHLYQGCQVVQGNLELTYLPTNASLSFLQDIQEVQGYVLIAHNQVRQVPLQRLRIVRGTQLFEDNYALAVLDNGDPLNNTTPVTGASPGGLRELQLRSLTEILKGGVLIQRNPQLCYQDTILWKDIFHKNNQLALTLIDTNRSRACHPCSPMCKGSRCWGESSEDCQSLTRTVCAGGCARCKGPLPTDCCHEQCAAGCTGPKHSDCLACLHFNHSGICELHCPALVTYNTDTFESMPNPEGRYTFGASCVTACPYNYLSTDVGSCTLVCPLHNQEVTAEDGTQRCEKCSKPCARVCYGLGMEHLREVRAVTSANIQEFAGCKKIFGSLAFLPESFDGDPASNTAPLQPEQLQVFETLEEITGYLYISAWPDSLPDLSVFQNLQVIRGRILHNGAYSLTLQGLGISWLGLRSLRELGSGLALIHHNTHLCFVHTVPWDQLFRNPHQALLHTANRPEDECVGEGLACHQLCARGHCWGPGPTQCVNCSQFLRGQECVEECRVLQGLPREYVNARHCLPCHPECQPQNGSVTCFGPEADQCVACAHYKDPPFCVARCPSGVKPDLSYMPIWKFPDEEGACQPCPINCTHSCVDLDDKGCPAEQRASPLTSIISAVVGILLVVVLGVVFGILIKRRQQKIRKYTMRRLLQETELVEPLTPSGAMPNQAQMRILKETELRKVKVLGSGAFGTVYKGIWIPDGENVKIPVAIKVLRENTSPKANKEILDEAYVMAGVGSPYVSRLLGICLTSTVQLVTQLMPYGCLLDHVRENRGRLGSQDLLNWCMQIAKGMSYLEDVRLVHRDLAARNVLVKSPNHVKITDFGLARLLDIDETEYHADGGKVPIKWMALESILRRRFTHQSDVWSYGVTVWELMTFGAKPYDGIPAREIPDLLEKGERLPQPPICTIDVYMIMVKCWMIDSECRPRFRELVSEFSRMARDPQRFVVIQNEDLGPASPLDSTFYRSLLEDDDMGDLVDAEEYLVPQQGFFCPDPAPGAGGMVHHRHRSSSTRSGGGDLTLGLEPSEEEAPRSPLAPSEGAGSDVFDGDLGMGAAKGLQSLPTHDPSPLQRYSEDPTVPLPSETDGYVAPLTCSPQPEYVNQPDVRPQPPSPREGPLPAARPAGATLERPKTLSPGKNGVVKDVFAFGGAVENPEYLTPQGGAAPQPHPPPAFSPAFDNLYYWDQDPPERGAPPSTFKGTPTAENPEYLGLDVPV

SF-539 = assay: Growth inhibition of human SF539 cells assessed as cell growth at 10 uM incubated for 48 hrs by sulforhodamine B assay relative to control; type: functional; settings: SF-539, 48 h, read-out: Activity
T47D = assay: Growth inhibition of human T47D cells assessed as cell growth at 10 uM incubated for 48 hrs by sulforhodamine B assay relative to control; type: functional; settings: read-out: Activity
SNB-19 = assay: Growth inhibition of human SNB19 cells assessed as cell growth at 10 uM incubated for 48 hrs by sulforhodamine B assay relative to control; type: functional; settings: SNB-19, 48 h, read-out: Activity
RXF 393 = assay: Growth inhibition of human RXF393 cells assessed as cell growth at 10 uM incubated for 48 hrs by sulforhodamine B assay relative to control; type: functional; settings: RXF 393, 48 h, read-out: Activity
CAKI-1 = assay: Growth inhibition of human Caki1 cells assessed as cell growth at 10 uM incubated for 48 hrs by sulforhodamine B assay relative to control; type: functional; settings: CAKI-1, 48 h, read-out: Activity
U-251 = assay: Growth inhibition of human U251 cells assessed as cell growth at 10 uM incubated for 48 hrs by sulforhodamine B assay relative to control; type: functional; settings: U-251, 48 h, read-out: Activity
OVCAR-4 = assay: Growth inhibition of human OVCAR4 cells assessed as cell growth at 10 uM incubated for 48 hrs by sulforhodamine B assay relative to control; type: functional; settings: OVCAR-4, 48 h, read-out: Activity

## CCOC(=O)c1c(C)oc2ncnc(Nc3ccc(OCc4cccc(C)c4)cc3)c12
OVCAR-3
  growth at 10 µM: 117%
MDA-MB-468
  growth at 10 µM: 106%
ACHN
  growth at 10 µM: 98.1%
LOX IMVI
  growth at 10 µM: 91.8%
HOP-92
  growth at 10 µM: 104%
NCI-H460
  growth at 10 µM: 95.5%
NCI/ADR-RES
  growth at 10 µM: 97%
SF-268
  growth at 10 µM: 106%
MDA-MB-231
  growth at 10 µM: 88.6%
HCT-15
  growth at 10 µM: 99.5%
[1]
  inhibition: 6%
MCF7
  growth at 10 µM: 99.2%
BT-549
  growth at 10 µM: 106%
A498
  growth at 10 µM: 84.4%
NCI-H226
  growth at 10 µM: 101%
NCI-H322M
  growth at 10 µM: 94%
K562
  growth at 10 µM: 98%
SF-295
  growth at 10 µM: 101%
HOP-62
  growth at 10 µM: 101%
[2]
  inhibition: 16%
SF-539
  growth at 10 µM: 95.4%
T47D
  growth at 10 µM: 87.3%
SNB-19
  growth at 10 µM: 99.7%
RXF 393
  growth at 10 µM: 111%
CAKI-1
  growth at 10 µM: 95.6%
U-251
  growth at 10 µM: 96.4%
OVCAR-4
  growth at 10 µM: 105%

## CCOC(=O)c1c(C)oc2ncnc(Nc3ccc(OCc4ccc(Cl)cc4)cc3)c12
OVCAR-3
  growth at 10 µM: 117%
MDA-MB-468
  growth at 10 µM: 89.8%
ACHN
  growth at 10 µM: 101%
LOX IMVI
  growth at 10 µM: 95.8%
HOP-92
  growth at 10 µM: 107%
NCI-H460
  growth at 10 µM: 107%
NCI/ADR-RES
  growth at 10 µM: 101%
SF-268
  growth at 10 µM: 109%
MDA-MB-231
  growth at 10 µM: 101%
HCT-15
  growth at 10 µM: 108%
[1]
  inhibition: 6%
MCF7
  growth at 10 µM: 102%
BT-549
  growth at 10 µM: 96.1%
A498
  growth at 10 µM: 91.7%
NCI-H226
  growth at 10 µM: 98.8%
NCI-H322M
  growth at 10 µM: 107%
K562
  growth at 10 µM: 83.8%
SF-295
  growth at 10 µM: 97.9%
HOP-62
  growth at 10 µM: 97.7%
[2]
  inhibition: 18%
SF-539
  growth at 10 µM: 98.2%
T47D
  growth at 10 µM: 84%
SNB-19
  growth at 10 µM: 111%
RXF 393
  growth at 10 µM: 85.9%
CAKI-1
  growth at 10 µM: 94%
U-251
  growth at 10 µM: 107%
OVCAR-4
  growth at 10 µM: 104%

## CCOC(=O)c1c(C)oc2ncnc(Nc3ccc(OCc4cccc(F)c4)cc3)c12
OVCAR-3
  growth at 10 µM: 104%
MDA-MB-468
  growth at 10 µM: 90.6%
ACHN
  growth at 10 µM: 62.1%
LOX IMVI
  growth at 10 µM: 85.3%
HOP-92
  growth at 10 µM: 104%
NCI-H460
  growth at 10 µM: 68.4%
NCI/ADR-RES
  growth at 10 µM: 86.2%
SF-268
  growth at 10 µM: 98.8%
MDA-MB-231
  growth at 10 µM: 101%
HCT-15
  growth at 10 µM: 98.5%
[1]
  inhibition: 34%
MCF7
  growth at 10 µM: 99.3%
BT-549
  growth at 10 µM: 100%
A498
  growth at 10 µM: 91.6%
NCI-H226
  growth at 10 µM: 87.6%
NCI-H322M
  growth at 10 µM: 101%
K562
  growth at 10 µM: 107%
SF-295
  growth at 10 µM: 82.7%
HOP-62
  growth at 10 µM: 87.8%
[2]
  inhibition: 19%
SF-539
  growth at 10 µM: 94.4%
T47D
  growth at 10 µM: 91%
SNB-19
  growth at 10 µM: 99.5%
RXF 393
  growth at 10 µM: 116%
CAKI-1
  growth at 10 µM: 80.1%
U-251
  growth at 10 µM: 96.1%
OVCAR-4
  growth at 10 µM: 102%

## CCOC(=O)c1c(C)oc2ncnc(Nc3ccc(OCc4ccc(Cl)c(Cl)c4)cc3)c12
OVCAR-3
  growth at 10 µM: 118%
MDA-MB-468
  growth at 10 µM: 96.5%
ACHN
  growth at 10 µM: 102%
LOX IMVI
  growth at 10 µM: 95.1%
HOP-92
  growth at 10 µM: 116%
NCI-H460
  growth at 10 µM: 102%
NCI/ADR-RES
  growth at 10 µM: 103%
SF-268
  growth at 10 µM: 104%
MDA-MB-231
  growth at 10 µM: 84.3%
HCT-15
  growth at 10 µM: 104%
[1]
  inhibition: 0%
MCF7
  growth at 10 µM: 106%
BT-549
  growth at 10 µM: 94.9%
A498
  growth at 10 µM: 92.3%
NCI-H226
  growth at 10 µM: 94.4%
NCI-H322M
  growth at 10 µM: 97.9%
K562
  growth at 10 µM: 93.8%
SF-295
  growth at 10 µM: 94.7%
HOP-62
  growth at 10 µM: 101%
[2]
  inhibition: 13%
SF-539
  growth at 10 µM: 98.4%
T47D
  growth at 10 µM: 90.1%
SNB-19
  growth at 10 µM: 103%
RXF 393
  growth at 10 µM: 101%
CAKI-1
  growth at 10 µM: 96.1%
U-251
  growth at 10 µM: 104%
OVCAR-4
  growth at 10 µM: 121%
